The values below come from patent publication US8178668B2, “2-aminopyridine kinase inhibitors” (OSI Pharmaceuticals, LLC, priority 2008, dated 2012).

The target of one test is RON (human) (Homo sapiens, UniProt Q04912). The test can be described thus: RON kinase AlphaScreen assay (Km of ATP). It counts as biochemical. The conditions noted are these: ATP at Km; at least duplicate experiments. The gist of the method:
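AlphaScreen with PT66 donor/acceptor beads, read after 1 h, detected phosphorylation of biotinylated poly(Glu,Tyr) by human RON. Enzyme-started reactions ran 30 min at room temperature with ATP at Km. Buffer was HEPES pH 7.4 with MgCl2, glycerol, vanadate and 1% DMSO.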

A further test deals with MET (human) (Homo sapiens, UniProt P08581). The test can be described thus: MET kinase AlphaScreen assay (Km of ATP). It counts as biochemical. The conditions noted are these: ATP at Km; at least duplicate experiments. Put shortly: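 AlphaScreen detection with PT66 beads (1 h) follows a 60 min room-temperature MET reaction. Substrate is 200 ng/μL biotinylated poly(Glu,Tyr), with ATP set at an enzyme-optimized concentration. Buffer is HEPES pH 7.4 with MgCl2, MnCl2 and 0.334 mM vanadate, compounds at 1% DMSO.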
MET (human), sequence (P08581 25-1390): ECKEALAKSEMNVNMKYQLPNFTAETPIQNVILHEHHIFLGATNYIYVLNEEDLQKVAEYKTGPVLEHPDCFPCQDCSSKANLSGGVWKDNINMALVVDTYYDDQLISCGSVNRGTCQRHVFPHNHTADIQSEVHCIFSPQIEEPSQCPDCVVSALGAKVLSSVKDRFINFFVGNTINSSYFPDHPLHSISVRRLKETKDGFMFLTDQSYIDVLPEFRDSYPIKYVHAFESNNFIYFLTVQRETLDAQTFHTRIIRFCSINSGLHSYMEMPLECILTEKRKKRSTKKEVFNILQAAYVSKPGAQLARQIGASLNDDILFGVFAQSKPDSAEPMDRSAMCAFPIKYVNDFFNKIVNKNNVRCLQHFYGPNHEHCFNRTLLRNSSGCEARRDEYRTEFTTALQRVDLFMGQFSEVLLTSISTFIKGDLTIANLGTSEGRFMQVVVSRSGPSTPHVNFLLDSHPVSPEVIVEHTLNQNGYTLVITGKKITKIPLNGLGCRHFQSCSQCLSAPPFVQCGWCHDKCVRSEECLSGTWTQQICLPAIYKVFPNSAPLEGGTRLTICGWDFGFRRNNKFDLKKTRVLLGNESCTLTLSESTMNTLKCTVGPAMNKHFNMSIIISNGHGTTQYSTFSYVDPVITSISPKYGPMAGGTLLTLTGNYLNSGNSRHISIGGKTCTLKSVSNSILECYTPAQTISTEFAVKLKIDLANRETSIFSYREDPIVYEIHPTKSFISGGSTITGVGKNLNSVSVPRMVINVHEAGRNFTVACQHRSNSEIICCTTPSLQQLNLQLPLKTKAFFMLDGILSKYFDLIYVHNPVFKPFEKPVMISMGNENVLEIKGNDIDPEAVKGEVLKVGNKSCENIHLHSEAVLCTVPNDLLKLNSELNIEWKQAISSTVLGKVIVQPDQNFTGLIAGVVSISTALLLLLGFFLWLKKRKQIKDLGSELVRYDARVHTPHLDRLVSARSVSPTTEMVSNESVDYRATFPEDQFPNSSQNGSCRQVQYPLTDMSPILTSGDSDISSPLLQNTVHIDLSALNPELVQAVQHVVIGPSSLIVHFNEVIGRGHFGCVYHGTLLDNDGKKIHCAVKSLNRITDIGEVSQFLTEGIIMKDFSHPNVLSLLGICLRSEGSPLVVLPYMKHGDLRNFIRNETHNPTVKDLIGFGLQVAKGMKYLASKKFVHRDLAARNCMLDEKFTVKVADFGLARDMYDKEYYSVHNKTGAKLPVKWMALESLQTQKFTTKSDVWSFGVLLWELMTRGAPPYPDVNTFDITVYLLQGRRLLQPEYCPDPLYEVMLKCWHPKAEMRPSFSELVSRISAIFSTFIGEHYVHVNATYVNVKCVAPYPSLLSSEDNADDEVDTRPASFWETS

Where a name gives a salt, the structure may show the parent alone. Bounds are passed on as bounds.

RON (human), sequence (Q04912 25-1400): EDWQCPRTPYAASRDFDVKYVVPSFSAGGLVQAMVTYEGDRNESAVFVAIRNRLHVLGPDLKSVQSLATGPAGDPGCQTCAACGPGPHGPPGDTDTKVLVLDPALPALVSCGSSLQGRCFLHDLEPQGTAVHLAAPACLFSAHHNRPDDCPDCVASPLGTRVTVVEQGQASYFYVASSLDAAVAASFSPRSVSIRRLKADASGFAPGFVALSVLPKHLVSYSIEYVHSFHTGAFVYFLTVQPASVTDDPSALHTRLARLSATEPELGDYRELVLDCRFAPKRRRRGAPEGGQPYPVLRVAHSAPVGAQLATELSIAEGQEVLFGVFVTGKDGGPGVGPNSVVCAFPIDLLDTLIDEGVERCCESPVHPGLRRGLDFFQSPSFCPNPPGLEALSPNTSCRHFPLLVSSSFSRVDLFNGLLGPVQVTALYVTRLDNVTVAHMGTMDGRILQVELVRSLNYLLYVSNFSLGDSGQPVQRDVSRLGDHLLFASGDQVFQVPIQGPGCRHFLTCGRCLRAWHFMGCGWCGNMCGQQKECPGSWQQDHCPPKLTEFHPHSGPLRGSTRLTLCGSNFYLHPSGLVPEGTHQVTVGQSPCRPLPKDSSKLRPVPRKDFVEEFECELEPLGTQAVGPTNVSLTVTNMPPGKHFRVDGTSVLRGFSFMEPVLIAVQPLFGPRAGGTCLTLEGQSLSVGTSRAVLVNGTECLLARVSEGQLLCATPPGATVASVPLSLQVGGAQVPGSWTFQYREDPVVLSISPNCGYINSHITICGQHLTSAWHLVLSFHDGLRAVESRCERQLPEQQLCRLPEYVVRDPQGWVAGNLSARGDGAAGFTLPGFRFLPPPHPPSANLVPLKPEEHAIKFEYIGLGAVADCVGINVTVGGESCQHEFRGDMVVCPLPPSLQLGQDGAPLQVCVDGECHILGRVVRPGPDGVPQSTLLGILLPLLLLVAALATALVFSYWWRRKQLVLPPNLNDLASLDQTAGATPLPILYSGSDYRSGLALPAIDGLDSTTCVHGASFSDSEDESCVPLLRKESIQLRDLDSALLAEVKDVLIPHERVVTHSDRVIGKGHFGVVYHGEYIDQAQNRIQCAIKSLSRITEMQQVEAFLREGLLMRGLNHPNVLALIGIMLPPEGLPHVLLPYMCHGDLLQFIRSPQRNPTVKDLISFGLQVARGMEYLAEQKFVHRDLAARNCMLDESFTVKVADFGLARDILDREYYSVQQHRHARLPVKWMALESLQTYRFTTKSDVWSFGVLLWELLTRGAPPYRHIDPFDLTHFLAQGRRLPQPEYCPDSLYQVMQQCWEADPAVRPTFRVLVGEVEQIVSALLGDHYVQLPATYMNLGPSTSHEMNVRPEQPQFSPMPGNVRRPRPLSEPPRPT

`Nc1ncc(-c2cnn(C3CCNCC3)c2)cc1-c1cc2ccccc2s1` [Example 104, 3-Benzo[b]thiophen-2-yl-5-(1-piperidin-4-yl-1H-pyrazol-4-yl)-pyridin-2-ylamine bishydrochloride]: the figures for the IC50 on RON (human) and at MET (human) were 100 to 1000 nM and no more than 100 nM, respectively.

As to `Cc1c(-c2cc(-c3cnn(C4CCNCC4)c3)cnc2N)sc2ccccc12` [Example 105, 3-(3-Methylbenzo[b]thiophen-2-yl)-5-(1-piperidin-4-yl-1H-pyrazol-4-yl)pyridin-2-ylamine bishydrochloride], the IC50 against RON (human) and against MET (human) was 1000 to 20000 nM each time.

For the compound `Nc1ncc(-c2cnn(C3CCNCC3)c2)cc1-c1nc2ccccc2o1` [Example 106, 3-Benzoxazol-2-yl-5-(1-piperidin-4-yl-1H-pyrazol-4-yl)-pyridin-2-ylamine dihydrochloride], the results for the half-maximal inhibitory concentration (IC50) against RON (human) and against MET (human) were 100 to 1000 nM and no more than 100 nM, respectively.

Consider `Nc1ncc(-c2cnn(C3CCNCC3)c2)cc1-c1nc2ccccc2s1` [Example 107, 3-Benzothiazol-2-yl-5-(1-piperidin-4-yl-1H-pyrazol-4-yl)-pyridin-2-ylamine dihydrochloride], for which the IC50 against RON (human) and against MET (human) was no more than 100 nM each time.

As for `CN1C2CCC1CC(n1cc(-c3cnc(N)c(-c4nc5ccccc5s4)c3)cn1)C2` (stereo not shown) [Example 108, 3-Benzothiazol-2-yl-5-[1-(8-methyl-8-azabicyclo [3.2.1]oct-3-yl)-1H-pyrazol-4-yl]-pyridin-2-ylamine trihydrochloride], the IC50 against RON (human) and against MET (human) was no more than 100 nM throughout.

With `CN1C2CCC1CC(n1cc(-c3cnc(N)c(-c4nc5ccccc5s4)c3)cn1)C2` (stereo not shown) [Example 109, 3-Benzothiazol-2-yl-5-[1-(8-methyl-8-azabicyclo[3.2.1]oct-3-yl)-1H-pyrazol-4-yl]-pyridin-2-ylamine], the IC50 at RON (human) and at MET (human) was no more than 100 nM throughout.

`Nc1ncc(-c2cnn(C3CC4CCC(C3)N4)c2)cc1-c1nc2ccccc2s1` (stereo not shown) [Example 110, 5-[1-(8-Azabicyclo[3.2.1]oct-3-yl)-1H-pyrazol-4-yl]-3-benzothiazol-2-ylpyridin-2-ylamine]: the IC50 at RON (human) and against MET (human) was 100 to 1000 nM throughout.

Turning to `Nc1ncc(-c2cnn(C3CCOCC3)c2)cc1-c1nc2ccccc2s1` [Example 111, 3-Benzothiazol-2-yl-5-[1-(tetrahydropyran-4-yl)-1H-pyrazol-4-yl]-pyridin-2-ylamine], the IC50 on RON (human) and at MET (human) was 100 to 1000 nM each time.

For the compound `Nc1ncc(-c2cn[nH]c2)cc1-c1nc2ccccc2s1` [Example 112, 3-Benzothiazol-2-yl-5-(1H-pyrazol-4-yl)-pyridin-2-ylamine], the IC50 against RON (human) and at MET (human) was 1000 to 20000 nM throughout.

Take `Nc1ncc(-c2cnn(C3CCCCC3)c2)cc1-c1nc2ccccc2s1` [Example 113, 3-Benzothiazol-2-yl-5-(1-cyclohexyl-1H-pyrazol-4-yl)-pyridin-2-ylamine bis-hydrochloride]: the IC50 lay within 1000 to 20000 nM on RON (human) and 100 to 1000 nM at MET (human).

Take `COCCN1CCC(n2cc(-c3cnc(N)c(-c4nc5ccccc5s4)c3)cn2)CC1` [Example 114, 3-Benzothiazol-2-yl-5-1-[1-(2-methoxyethyl)-piperidin-4-yl]-1H-pyrazol-4-yl-pyridin-2-ylamine]: the IC50 against RON (human) and against MET (human) was 100 to 1000 nM throughout.

As to `Nc1ncc(-c2cnn(C3CCN(CC(F)(F)F)CC3)c2)cc1-c1nc2ccccc2s1` [Example 115, 3-Benzothiazol-2-yl-5-1-[1-(2,2,2-trifluoroethyl)-piperidin-4-yl]-1H-pyrazol-4-yl-pyridin-2-ylamine dihydrochloride], the IC50 against RON (human) and on MET (human) was 1000 to 20000 nM throughout.

For `NC(=O)N1CCC(n2cc(-c3cnc(N)c(-c4nc5ccccc5s4)c3)cn2)CC1` [Example 116, 4-[4-(6-Amino-5-benzothiazol-2-yl-pyridin-3-yl)-pyrazol-1-yl]-piperidine-1-carboxamide bis-hydrochloride], the IC50 on RON (human) and at MET (human) was 100 to 1000 nM each time.

Turning to `CN(C)C(=O)N1CCC(n2cc(-c3cnc(N)c(-c4nc5ccccc5s4)c3)cn2)CC1` [Example 117, 4-[4-(6-Amino-5-benzothiazol-2-yl-pyridin-3-yl)-pyrazol-1-yl]-piperidine-1-carboxylic acid dimethylamide bis-hydrochloride], the IC50 at RON (human) and at MET (human) was 100 to 1000 nM throughout.

On to `CC(C)n1cc(-c2cnc(N)c(-c3nc4ccccc4s3)c2)cn1` [Example 118, 3-Benzothiazol-2-yl-5-(1-isopropyl-1H-pyrazol-4-yl)-pyridin-2-ylamine bis-hydrochloride], for which the IC50 at RON (human) and against MET (human) was 100 to 1000 nM each time.

Turning to `Cn1cc(-c2cnc(N)c(-c3nc4ccccc4s3)c2)cn1` [Example 119, 3-Benzothiazol-2-yl-5-(1-methyl-1H-pyrazol-4-yl)-pyridin-2-ylamine bis-hydrochloride], the IC50 against RON (human) and at MET (human) was 1000 to 20000 nM in each case.

In the case of `Nc1ncc(-c2cnc(N3CCOCC3)s2)cc1-c1nc2ccccc2s1` [Example 120, 3-Benzothiazol-2-yl-5-(2-morpholin-4-ylthiazol-5-yl)-pyridin-2-ylamine], the IC50 on RON (human) and at MET (human) was 1000 to 20000 nM throughout.

`CN1CCN(c2ncc(-c3cnc(N)c(-c4nc5ccccc5s4)c3)s2)CC1` [Example 121, 3-Benzothiazol-2-yl-5-[2-(4-methylpiperazin-1-yl)-thiazol-5-yl]-pyridin-2-ylamine dihydrochloride]: the IC50 at RON (human) and against MET (human) was 100 to 1000 nM in each case.

In the case of `Nc1ncc(-c2cnc(N3CCNCC3)s2)cc1-c1nc2ccccc2s1` [Example 122, 3-Benzothiazol-2-yl-5-(2-piperazin-1-ylthiazol-5-yl)-pyridin-2-ylamine dihydrochloride], the IC50 at RON (human) and against MET (human) was 100 to 1000 nM throughout.

`Nc1ncc(-c2cnn(C3CCC(=O)CC3)c2)cc1-c1nc2ccccc2s1` [Example 123, 4-[4-(6-Amino-5-benzothiazol-2-ylpyridin-3-yl)-pyrazol-1-yl]-cyclohexanone]: the IC50 against RON (human) and against MET (human) was 100 to 1000 nM in each case.

As to `Nc1ncc(-c2cnn(C3CCC4(CC3)OCCO4)c2)cc1-c1nc2ccccc2s1` [Example 124, 3-Benzothiazol-2-yl-5-[1-(1,4-dioxaspiro[4.5]dec-8-yl)-1H-pyrazol-4-yl]-pyridin-2-ylamine], the IC50 at RON (human) was 1000 to 20000 nM; at MET (human), greater than 20000 nM.

As for `CC(C)(C)OC(=O)NCC#Cc1cnc(N)c(-c2nc3ccccc3s2)c1` [Example 125, [3-(6-Amino-5-benzothiazol-2-ylpyridin-3-yl)-prop-2-ynyl]-carbamic acid tert-butyl ester], the values for the IC50 against RON (human) and against MET (human) were greater than 20000 nM and 1000 to 20000 nM, respectively.

For the compound `NCC#Cc1cnc(N)c(-c2nc3ccccc3s2)c1` [Example 126, 5-(3-Aminoprop-1-ynyl)-3-benzothiazol-2-ylpyridin-2-ylamine], the half-inhibitory concentration (IC50) against RON (human) is greater than 20000 nM; against MET (human), 1000 to 20000 nM.

For the compound `CN(C)C(=O)NCC#Cc1cnc(N)c(-c2nc3ccccc3s2)c1` [Example 127, 3-[3-(6-Amino-5-benzothiazol-2-ylpyridin-3-yl)-prop-2-ynyl]-1,1-dimethylurea], the IC50 at RON (human) and against MET (human) was 1000 to 20000 nM in each case.

With `CCN1CCN(C(=O)NCC#Cc2cnc(N)c(-c3nc4ccccc4s3)c2)CC1` [Example 128, 4-Ethylpiperazine-1-carboxylic acid [3-(6-amino-5-benzothiazol-2-ylpyridin-3-yl)-prop-2-ynyl]-amide], the IC50 on RON (human) and against MET (human) was 1000 to 20000 nM each time.

With `NC(=O)NCC#Cc1cnc(N)c(-c2nc3ccccc3s2)c1` [Example 129, [3-(6-Amino-5-benzothiazol-2-ylpyridin-3-yl)-prop-2-ynyl]-urea], the IC50 against RON (human) and on MET (human) was 1000 to 20000 nM in each case.

Take `CN(C)CC(=O)NCC#Cc1cnc(N)c(-c2nc3ccccc3s2)c1` [Example 130, N-[3-(6-Amino-5-benzothiazol-2-ylpyridin-3-yl)-prop-2-ynyl]-2-dimethylaminoacetamide]: the IC50 at RON (human) fell in the range of 1000 to 20000 nM; on MET (human) it was 100 to 1000 nM.

Take `Nc1ncc(C#CCNC(=O)CN2CCCC2)cc1-c1nc2ccccc2s1` [Example 131, N-[3-(6-Amino-5-benzothiazol-2-ylpyridin-3-yl)-prop-2-ynyl]-2-pyrrolidin-1-ylacetamide]: the IC50 at RON (human) and against MET (human) was 1000 to 20000 nM in each case.

For `Nc1ncc(-c2cnn(CC(=O)N3CCOCC3)c2)cc1-c1nc2ccccc2s1` [Example 132, 2-[4-(6-Amino-5-benzothiazol-2-ylpyridin-3-yl)-pyrazol-1-yl]-1-morpholin-4-ylethanone], the IC50 against RON (human) and against MET (human) was 1000 to 20000 nM throughout.

`Nc1ncc(-c2cnn(CC(=O)N3CCCC3)c2)cc1-c1nc2ccccc2s1` [Example 133, 2-[4-(6-Amino-5-benzothiazol-2-ylpyridin-3-yl)-pyrazol-1-yl]-1-pyrrolidin-1-ylethanone]: the IC50 at RON (human) and on MET (human) was 1000 to 20000 nM each time.

In the case of `COCCNC(=O)Cn1cc(-c2cnc(N)c(-c3nc4ccccc4s3)c2)cn1` [Example 134, 2-[4-(6-Amino-5-benzothiazol-2-ylpyridin-3-yl)-pyrazol-1-yl]-N-(2-methoxyethyl)-acetamide], the IC50 at RON (human) and on MET (human) was 1000 to 20000 nM each time.

For `Nc1ncc(-c2cnn(CC(=O)N3CCC(O)C3)c2)cc1-c1nc2ccccc2s1` (stereo not shown) [Example 135, 2-[4-(6-Amino-5-benzothiazol-2-ylpyridin-3-yl)-pyrazol-1-yl]-1-(3-hydroxypyrrolidin-1-yl)-ethanone], the IC50 against RON (human) and on MET (human) was 1000 to 20000 nM each time.
